Experimental data from US20230382862A1, “ERG ONCOGENE INHIBITORS” (The Henry M. Jackson Foundation for the Advancement of …, priority 2020, published 2023).

What was measured:
VCaP cells = assay: VCaP cell growth inhibition / cell viability (Cell Titer-Glo); format: cell-based; conditions: Homo sapiens, 96 h
Description: TMPRSS2-ERG fusion positive ERG oncoprotein expressing prostate cancer cell line VCaP, was obtained from the American Tissue Culture Collection (ATCC; Manassas, Va.). The cells were grown in ATCC-recommended cell culture media under cell growth promoting conditions as recommended by the supplier (DMEM media; Gibco, Grand island, NY) supplemented with 10% fetal bovine serum (ATCC; Manassas, Va.). […] The passage number of cell lines used in this study ranges from 1 to 6.
48 hours following plating of cells, the appropriate test compound is added to each well of the tissue culture dish at concentrations (0, 0.001, 0.005, 0.01, 0.05, 0.10, 0.15, 0.2, 0.25, 0.3, 0.35, 0.4) μM/per well). The medium was replenished every 24 hours with fresh growth medium containing the same concentration of the same test compound for indicated period of the cell growth inhibition assay for 96 hours. At the end of the treatment the cells were analyzed for viability by labeling for ATPase activity. Cell growth were calculated by measuring bioluminescence using Cell Glow ATPase assay with Cell Titer-Glo luminescent cell viability assay (Promega, Madison, Wis.) detected by the HT Envision System (PerkinElmer, Waltham, Mass.). The average viable cell numbers of each concentration in triplicates were used to calculate the IC50 of each compound with the GraphPad Prism 7 software. […]

HUVEC cells = assay: Growth of endothelial-derived primary cells (HUVEC); format: cell-based, human; conditions: within effective concentration range observed in VCaP, data not shown
Description: (§1) TMPRSS2-ERG fusion positive ERG oncoprotein expressing prostate cancer cell line VCaP, was obtained from the American Tissue Culture Collection (ATCC; Manassas, Va.). The cells were grown in ATCC-recommended cell culture media under cell growth promoting conditions as recommended by the supplier (DMEM media; Gibco, Grand island, NY) supplemented with 10% fetal bovine serum (ATCC; Manassas, Va.). Normal primary endothelial cells, HUVEC-human umbilical vein endothelial cells, were also obtained from ATCC (Endothelial cell media; Cell biologics, Chicago, Ill.) supplemented with 10% FBS) as recommended by the supplier. The passage number of cell lines used in this study ranges from 1 to 6.
(§2) ERG protein is naturally expressed in endothelial cells.

RIOK2 = target: T1, RIOK2 (Homo sapiens, UniProt Q9BVS4); assay: RIOK2 levels in endothelial-derived primary cells (HUVEC); format: cell-based; conditions: within effective concentration range observed in VCaP, data not shown
T1 construct: endogenous in cells; host or cells: HUVEC primary endothelial cells (ATCC)
T1 sequence (Q9BVS4 whole entry): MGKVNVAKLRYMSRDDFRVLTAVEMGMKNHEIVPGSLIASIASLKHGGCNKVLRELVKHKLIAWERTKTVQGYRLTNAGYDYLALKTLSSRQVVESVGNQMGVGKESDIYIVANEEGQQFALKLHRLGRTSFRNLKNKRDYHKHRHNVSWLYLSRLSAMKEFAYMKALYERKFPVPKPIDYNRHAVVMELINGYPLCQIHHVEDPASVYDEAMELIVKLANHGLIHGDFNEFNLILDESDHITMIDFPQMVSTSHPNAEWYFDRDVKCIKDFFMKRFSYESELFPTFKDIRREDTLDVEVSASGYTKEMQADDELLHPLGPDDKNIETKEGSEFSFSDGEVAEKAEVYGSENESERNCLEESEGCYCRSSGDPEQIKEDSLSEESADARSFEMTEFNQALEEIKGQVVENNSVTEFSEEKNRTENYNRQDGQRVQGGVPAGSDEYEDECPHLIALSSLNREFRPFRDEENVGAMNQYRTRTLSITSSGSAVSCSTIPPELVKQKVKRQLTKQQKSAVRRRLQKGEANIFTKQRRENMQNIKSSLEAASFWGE
Description: as §1, §2

## CN(C)c1ccc(N=Nc2ccccn2)c(O)c1.CS(=O)(=O)O [Compound 2, 5-(dimethylamino)-2-(pyridin-2-yldiazenyl)phenol, methanesulfonic acid (1:1)]
VCaP cells
  IC50: 0.089 µM
HUVEC cells
  effect on growth of endothelial-derived primary cells: did not effect
RIOK2
  effect on RIOK2 levels of endothelial-derived primary cells: did not effect
